{"source": "paper PMC11247487", "about": "“Discovery of Dual MER/AXL Kinase Inhibitors as Bifunctional Small Molecules for Inhibiting Tumor Growth and Enhancing Tumor Immune Microenvironment” (Journal of Medicinal Chemistry, 2024)", "key": {"[1]": {"tested_on": "FLT3", "design": "method as in PMID 25068800, PMID 27649555", "conditions": "cited from earlier work"}, "[2]": {"biological_target": "T1, MER (Homo sapiens, UniProt Q12866)", "T1 construct": "A purified kinase (MER or AXL) was incubated with a compound or DMSO", "T1 sequence (Q12866 21-999)": "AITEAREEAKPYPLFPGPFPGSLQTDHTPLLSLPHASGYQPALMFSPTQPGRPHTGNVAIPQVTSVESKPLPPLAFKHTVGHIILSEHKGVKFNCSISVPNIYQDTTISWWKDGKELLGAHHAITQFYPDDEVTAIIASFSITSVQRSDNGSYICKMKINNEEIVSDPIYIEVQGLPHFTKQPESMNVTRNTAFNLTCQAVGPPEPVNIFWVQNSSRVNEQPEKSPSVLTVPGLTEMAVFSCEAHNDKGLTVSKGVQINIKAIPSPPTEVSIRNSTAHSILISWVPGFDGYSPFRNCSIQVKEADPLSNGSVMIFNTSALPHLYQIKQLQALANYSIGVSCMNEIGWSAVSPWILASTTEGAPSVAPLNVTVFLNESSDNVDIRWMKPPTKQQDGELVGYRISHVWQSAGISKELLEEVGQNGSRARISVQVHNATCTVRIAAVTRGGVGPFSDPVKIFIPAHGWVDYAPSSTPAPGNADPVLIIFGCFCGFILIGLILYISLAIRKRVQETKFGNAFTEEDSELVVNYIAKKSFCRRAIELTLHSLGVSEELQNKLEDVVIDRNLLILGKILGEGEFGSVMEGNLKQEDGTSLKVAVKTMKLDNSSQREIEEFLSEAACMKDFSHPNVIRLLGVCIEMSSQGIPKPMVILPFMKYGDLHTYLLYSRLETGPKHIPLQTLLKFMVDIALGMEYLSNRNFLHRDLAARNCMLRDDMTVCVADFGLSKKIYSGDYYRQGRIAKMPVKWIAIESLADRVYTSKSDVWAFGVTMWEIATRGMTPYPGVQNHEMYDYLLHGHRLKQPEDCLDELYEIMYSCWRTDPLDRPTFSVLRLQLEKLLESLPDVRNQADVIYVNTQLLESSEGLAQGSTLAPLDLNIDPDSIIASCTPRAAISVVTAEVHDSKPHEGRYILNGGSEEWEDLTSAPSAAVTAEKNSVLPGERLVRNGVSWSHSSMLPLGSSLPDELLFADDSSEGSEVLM", "conditions": "cited from earlier work"}, "[3]": {"tested_on": "Ba/F3-MER cells", "assay": "Cell viability assay (MTS)", "format": "cell-based", "conditions": "72 h"}, "[4]": {"assay": "In vivo pharmacokinetics study", "conditions": "mice", "procedure": "The animal studies were performed according to NHRI institutional animal care and committee-approved procedures. Male ICR mice (25–35 g) were obtained from BioLASCO (Taiwan Co., Ltd., Ilan, Taiwan). […] All samples were analyzed for the parent drug by LC-MS/MS. Plasma concentration data were analyzed with a noncompartmental method."}, "[5]": {"assay": "In vitro microsomal stability assay", "format": "in vitro ADME", "conditions": "1 μM, mouse liver microsomes, percent remaining at 30 min", "procedure": "All incubations were initiated with the addition of NADPH-generating system at 37 °C for 30 min. At 0 and the end of incubation, 100 μL of aliquots were taken from the incubation mixture and placed into centrifuge tubes containing 100 μL of ice-cold acetonitrile to terminate the metabolic reaction. The samples were vortexed and centrifuged, and then, the supernatant injected onto LC/MS. Percent of remaining of each compound was calculated by comparing peak areas at 30 min to that at the initiation of incubation."}, "[6]": {"tested_on": "MC38 murine colon tumor", "assay": "MC38 syngeneic tumor model", "format": "in vivo, mice", "conditions": "MC38 tumor-bearing mice, 25-50 mg/kg orally, 3 weeks"}, "[7]": {"tested_on": "immune cells in tumor and spleen of MC38 tumor-bearing mice", "assay": "Immunophenotyping by flow cytometry", "format": "in vivo", "conditions": "50 mg/kg QD, FOTO, 2 weeks", "procedure": "Tumor and spleen tissues from the control and treated animals were harvested 2 h after the last dose (day 11). […] tissues were carefully removed from the tumors followed by digestion with 0.1% collagenase III in DMEM medium for 30 min at 37 °C with agitation every 10 min. The digestion was terminated by adding 10% FBS containing PBS. The single-cell suspension was filtered through a 40 μm filter after red blood cell lysis. Aliquots of the cell suspension were preincubated with the mouse Fc receptor blocker for 10 min before staining with appropriate antimouse antibody conjugate for Cd45, Cd3, Cd4, Cd8, Cd11b, Cd86, F4/80, AXL, and MER (all antibody conjugates from BioLegend) at 4 °C for 30 min followed by two washes in 1% BSA containing buffer and analyzed by flow cytometry to quantify the accumulation of infiltrating immune cells into the tumor. For analysis of Cd206, the cells were fixed using the Cyto X/Cytoperm kit (BD Biosciences) after surface marker staining and then stained with antimouse Cd206 antibody."}, "[8]": {"conditions": "mouse, in vivo"}, "[9]": {"biological_target": "DDR1 (Homo sapiens, UniProt Q08345)", "sequence (Q08345 19-913)": "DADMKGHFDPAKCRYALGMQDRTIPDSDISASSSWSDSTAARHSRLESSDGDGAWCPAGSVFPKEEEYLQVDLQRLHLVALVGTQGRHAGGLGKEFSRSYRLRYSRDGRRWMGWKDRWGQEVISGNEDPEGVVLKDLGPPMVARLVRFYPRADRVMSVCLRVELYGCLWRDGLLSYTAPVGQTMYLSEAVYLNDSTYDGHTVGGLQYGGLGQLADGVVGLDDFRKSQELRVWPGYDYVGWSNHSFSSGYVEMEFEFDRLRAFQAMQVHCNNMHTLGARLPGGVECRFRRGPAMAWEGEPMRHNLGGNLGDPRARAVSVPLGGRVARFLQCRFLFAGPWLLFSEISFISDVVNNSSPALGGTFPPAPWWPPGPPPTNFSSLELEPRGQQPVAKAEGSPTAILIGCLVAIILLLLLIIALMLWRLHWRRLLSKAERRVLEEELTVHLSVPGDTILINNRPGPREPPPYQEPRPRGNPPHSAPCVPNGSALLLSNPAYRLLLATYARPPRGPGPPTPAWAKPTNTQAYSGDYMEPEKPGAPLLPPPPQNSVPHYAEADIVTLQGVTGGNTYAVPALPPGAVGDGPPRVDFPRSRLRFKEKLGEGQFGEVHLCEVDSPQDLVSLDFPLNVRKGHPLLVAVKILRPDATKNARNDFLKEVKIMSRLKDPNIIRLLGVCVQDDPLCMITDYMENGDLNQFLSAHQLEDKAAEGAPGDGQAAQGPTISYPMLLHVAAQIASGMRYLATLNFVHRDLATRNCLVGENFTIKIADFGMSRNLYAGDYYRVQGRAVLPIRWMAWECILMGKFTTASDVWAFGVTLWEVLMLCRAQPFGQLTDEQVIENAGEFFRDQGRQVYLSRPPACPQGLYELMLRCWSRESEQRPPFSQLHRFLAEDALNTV", "assay": "HotSpot kinase assay", "conditions": "read-out: % Enzyme Activity"}, "[10]": {"biological_target": "DDR2 (Homo sapiens, UniProt Q16832)", "sequence (Q16832 22-855)": "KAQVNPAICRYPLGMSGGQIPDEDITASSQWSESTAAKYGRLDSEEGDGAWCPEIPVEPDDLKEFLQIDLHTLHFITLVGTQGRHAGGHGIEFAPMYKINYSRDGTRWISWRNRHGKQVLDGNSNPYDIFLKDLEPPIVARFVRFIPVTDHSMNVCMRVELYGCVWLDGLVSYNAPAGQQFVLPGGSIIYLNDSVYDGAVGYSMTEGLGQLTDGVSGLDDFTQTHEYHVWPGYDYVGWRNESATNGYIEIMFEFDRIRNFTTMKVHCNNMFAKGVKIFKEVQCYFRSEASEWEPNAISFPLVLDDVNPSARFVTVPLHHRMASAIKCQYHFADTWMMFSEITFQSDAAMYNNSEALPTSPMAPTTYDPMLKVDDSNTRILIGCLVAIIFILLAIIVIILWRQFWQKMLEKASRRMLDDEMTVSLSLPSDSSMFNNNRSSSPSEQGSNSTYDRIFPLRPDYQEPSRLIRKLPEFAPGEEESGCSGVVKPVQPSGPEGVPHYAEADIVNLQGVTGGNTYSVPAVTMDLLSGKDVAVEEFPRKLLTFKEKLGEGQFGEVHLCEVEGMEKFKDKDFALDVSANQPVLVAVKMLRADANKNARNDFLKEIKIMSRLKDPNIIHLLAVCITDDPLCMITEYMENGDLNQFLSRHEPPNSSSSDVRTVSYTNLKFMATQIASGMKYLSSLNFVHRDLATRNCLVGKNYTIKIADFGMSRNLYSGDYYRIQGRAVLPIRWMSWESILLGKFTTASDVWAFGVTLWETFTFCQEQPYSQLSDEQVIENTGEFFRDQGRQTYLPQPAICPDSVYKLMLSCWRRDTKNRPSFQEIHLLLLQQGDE", "assay": "HotSpot kinase assay", "conditions": "read-out: % Enzyme Activity"}, "[11]": {"biological_target": "FLT3 (Homo sapiens, UniProt P36888)", "sequence (P36888 27-993)": "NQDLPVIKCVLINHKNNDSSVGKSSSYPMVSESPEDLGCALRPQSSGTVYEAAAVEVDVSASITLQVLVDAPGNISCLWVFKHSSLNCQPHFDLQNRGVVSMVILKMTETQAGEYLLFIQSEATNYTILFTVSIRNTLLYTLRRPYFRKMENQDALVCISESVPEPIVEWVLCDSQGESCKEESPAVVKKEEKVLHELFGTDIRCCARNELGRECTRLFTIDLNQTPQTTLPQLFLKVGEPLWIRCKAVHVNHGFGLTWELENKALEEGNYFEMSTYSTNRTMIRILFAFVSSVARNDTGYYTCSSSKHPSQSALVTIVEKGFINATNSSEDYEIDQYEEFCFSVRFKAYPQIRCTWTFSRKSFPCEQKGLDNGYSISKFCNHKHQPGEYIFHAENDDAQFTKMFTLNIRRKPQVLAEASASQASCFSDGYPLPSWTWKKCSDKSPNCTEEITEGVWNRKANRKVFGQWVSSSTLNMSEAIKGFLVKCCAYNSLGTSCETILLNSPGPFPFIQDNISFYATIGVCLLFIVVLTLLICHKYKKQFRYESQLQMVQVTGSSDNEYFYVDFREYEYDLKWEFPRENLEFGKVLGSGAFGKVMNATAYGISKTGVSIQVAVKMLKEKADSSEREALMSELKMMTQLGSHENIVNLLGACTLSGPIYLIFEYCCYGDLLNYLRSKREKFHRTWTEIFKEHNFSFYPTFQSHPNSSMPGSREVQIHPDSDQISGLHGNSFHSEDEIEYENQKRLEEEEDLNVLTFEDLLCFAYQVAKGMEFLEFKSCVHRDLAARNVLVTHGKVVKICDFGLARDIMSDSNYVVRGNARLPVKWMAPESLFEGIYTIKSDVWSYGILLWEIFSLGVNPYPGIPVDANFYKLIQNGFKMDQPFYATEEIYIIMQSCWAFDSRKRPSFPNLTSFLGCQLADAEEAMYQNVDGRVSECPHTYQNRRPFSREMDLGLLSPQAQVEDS", "assay": "HotSpot kinase assay", "conditions": "read-out: % Enzyme Activity"}, "[12]": {"biological_target": "KIT (Homo sapiens, UniProt P10721)", "sequence (P10721 26-976)": "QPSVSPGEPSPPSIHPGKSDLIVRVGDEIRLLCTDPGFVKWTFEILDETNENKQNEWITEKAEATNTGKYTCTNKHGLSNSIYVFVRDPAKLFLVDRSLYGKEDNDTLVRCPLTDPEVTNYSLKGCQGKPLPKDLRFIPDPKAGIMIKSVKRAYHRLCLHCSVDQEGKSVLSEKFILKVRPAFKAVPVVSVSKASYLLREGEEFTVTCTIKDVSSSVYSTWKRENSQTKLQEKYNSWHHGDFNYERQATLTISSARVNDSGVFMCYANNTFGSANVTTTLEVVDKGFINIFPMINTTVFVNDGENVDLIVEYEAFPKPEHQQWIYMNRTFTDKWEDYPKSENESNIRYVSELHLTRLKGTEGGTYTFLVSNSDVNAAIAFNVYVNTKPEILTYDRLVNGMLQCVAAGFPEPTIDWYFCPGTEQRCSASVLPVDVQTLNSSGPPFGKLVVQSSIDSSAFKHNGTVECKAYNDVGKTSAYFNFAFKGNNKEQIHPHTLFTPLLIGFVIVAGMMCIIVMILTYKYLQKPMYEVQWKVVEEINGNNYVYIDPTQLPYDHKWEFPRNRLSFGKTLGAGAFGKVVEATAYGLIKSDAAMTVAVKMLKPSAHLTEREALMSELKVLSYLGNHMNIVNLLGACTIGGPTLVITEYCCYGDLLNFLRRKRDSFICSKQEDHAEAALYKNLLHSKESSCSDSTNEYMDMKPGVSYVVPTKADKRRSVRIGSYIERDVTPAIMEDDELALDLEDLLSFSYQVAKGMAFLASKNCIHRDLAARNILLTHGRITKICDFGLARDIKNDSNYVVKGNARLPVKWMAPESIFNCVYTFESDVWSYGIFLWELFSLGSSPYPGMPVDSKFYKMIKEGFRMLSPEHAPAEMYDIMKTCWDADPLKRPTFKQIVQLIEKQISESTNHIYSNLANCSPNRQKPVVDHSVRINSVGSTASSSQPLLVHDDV", "assay": "HotSpot kinase assay", "conditions": "read-out: % Enzyme Activity"}, "[13]": {"biological_target": "IRR (Homo sapiens, UniProt P14616)", "assay": "HotSpot kinase assay", "conditions": "read-out: % Enzyme Activity"}, "[14]": {"biological_target": "ROS1 (Homo sapiens, UniProt P08922)", "assay": "HotSpot kinase assay", "conditions": "read-out: % Enzyme Activity"}, "[15]": {"biological_target": "TRKA (Homo sapiens, UniProt P04629)", "sequence (P04629 33-796)": "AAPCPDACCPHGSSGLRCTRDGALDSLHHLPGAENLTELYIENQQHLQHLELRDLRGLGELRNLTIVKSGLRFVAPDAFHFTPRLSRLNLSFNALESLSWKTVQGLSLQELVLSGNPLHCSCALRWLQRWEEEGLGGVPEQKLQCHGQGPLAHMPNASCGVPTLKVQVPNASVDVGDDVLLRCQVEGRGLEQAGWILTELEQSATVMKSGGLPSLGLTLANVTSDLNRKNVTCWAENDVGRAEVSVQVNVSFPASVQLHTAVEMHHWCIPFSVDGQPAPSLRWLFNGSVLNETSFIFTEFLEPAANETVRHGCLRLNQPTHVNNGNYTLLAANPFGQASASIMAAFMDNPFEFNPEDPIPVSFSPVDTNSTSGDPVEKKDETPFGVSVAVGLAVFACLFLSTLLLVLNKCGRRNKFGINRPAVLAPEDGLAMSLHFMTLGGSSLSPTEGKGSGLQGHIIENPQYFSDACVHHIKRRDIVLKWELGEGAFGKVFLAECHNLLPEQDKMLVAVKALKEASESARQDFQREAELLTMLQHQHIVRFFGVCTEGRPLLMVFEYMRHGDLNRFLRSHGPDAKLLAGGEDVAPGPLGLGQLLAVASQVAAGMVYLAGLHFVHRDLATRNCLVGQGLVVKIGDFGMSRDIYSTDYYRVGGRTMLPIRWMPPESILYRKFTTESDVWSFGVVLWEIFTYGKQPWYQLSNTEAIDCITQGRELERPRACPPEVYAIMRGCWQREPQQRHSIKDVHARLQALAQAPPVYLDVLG", "assay": "HotSpot kinase assay", "conditions": "read-out: % Enzyme Activity"}, "[16]": {"biological_target": "TRKB (Homo sapiens, UniProt Q16620)", "assay": "HotSpot kinase assay", "conditions": "read-out: % Enzyme Activity"}, "[17]": {"biological_target": "TRKC (Homo sapiens, UniProt Q16288)", "assay": "HotSpot kinase assay", "conditions": "read-out: % Enzyme Activity"}, "[18]": {"assay": "14-day repeated dose toxicity study", "conditions": "ICR mice"}, "[19]": {"tested_on": "MER phosphorylation in G361 cells", "assay": "Western blotting of MER phosphorylation", "conditions": "48 h treatment"}, "[20]": {"tested_on": "AXL phosphorylation in H1299 cells", "assay": "Western blotting of AXL phosphorylation", "conditions": "1 h treatment"}, "[21]": {"conditions": "male, ICR, mouse, plasma, iv 2 mg/kg, po 10 mg/kg"}}, "note": "“And” between values parts separate entries of the source, which are not always exact repeats. Equal entries are not always repeated. “Also recorded” adds a separate entry of the source."}
{"smiles": "CCC[C@@H](C)Nc1ncc2c(C3CCN(C(=O)c4cc(C)nc(C)c4)CC3)cn([C@H]3CC[C@H](O)CC3)c2n1", "note": "[Compound 2, UNC5293]", "values": [{"measurement": "IC50", "setting": "[2]", "result": 0.9, "unit": "nM"}]}
{"smiles": "CN(C)Cc1cccc(-c2c(-c3cnn(C)c3)oc3ncnc(Oc4ccc(NC(=O)c5cccn(-c6ccc(F)cc6)c5=O)cc4)c23)c1", "note": "[Compound 33, N-{4-[(5-{3-[(Dimethylamino)methyl]phenyl}-6-(1-methyl-1H-pyrazol-4-yl)furo[2,3-d]pyrimidin-4-yl)oxy]phenyl}-1-(4-fluorophenyl)-2-oxo-1,2-dihydropyridine-3-carboxamide]", "values": [{"measurement": "IC50", "setting": "[3]", "result": "5 nM and 4.8 nM"}, {"measurement": "bioavailability", "setting": "[4]; [21]", "result": "> 20", "unit": "%"}, {"measurement": "bioavailability at 24 h", "setting": "[4]; [21]", "result": 54.6, "unit": "%"}, {"measurement": "clearance", "setting": "[4]; male, ICR, mouse, plasma, iv 2 mg/kg, read-out: iv CL", "result": 12.6, "unit": "mL/min/kg"}, {"measurement": "half-life", "setting": "[4]; male, ICR, mouse, plasma, iv 2 mg/kg, read-out: iv T1/2 (converted)", "result": 4.5, "unit": "h"}, {"measurement": "Vd", "setting": "[4]; male, ICR, mouse, plasma, iv 2 mg/kg, read-out: iv Vss", "result": 5.2, "unit": "L/kg"}, {"measurement": "Tmax at 24 h", "setting": "[4]; male, ICR, mouse, plasma, po 10 mg/kg", "result": 5.3, "unit": "h"}, {"measurement": "half-life at 24 h", "setting": "[4]; male, ICR, mouse, plasma, po 10 mg/kg, read-out: po T1/2 (converted)", "result": 5.2, "unit": "h"}, {"measurement": "iv DNAUC(0–inf)", "setting": "[4]; iv 2 mg/kg, dose-normalized", "result": "1,573.0 ng × hr/mL"}, {"measurement": "po DNAUC(0–inf)", "setting": "[4]; po 10 mg/kg, dose-normalized", "result": 858.8, "unit": "ng·h/mL"}, {"measurement": "po DNCmax", "setting": "[4]; po 10 mg/kg, dose-normalized", "result": 95.0, "unit": "ng/mL"}, {"measurement": "Microsomal stability @ 30 min", "setting": "[5]", "result": 79, "unit": "%"}, {"measurement": "body weight during treatment", "setting": "[6]", "result": "well-tolerated without significant body weight loss"}, {"measurement": "increase in intratumoral M1-like macrophages", "setting": "[7]", "result": 2, "unit": "fold"}, {"measurement": "increase in percentage of Cd3^+ pan-T cells in spleen", "setting": "[7]", "result": 2, "unit": "fold"}, {"measurement": "increase in percentage of Cd4^+ helper T cells in spleen", "setting": "[7]", "result": 2, "unit": "fold"}, {"measurement": "increase in percentage of Cd8^+ cytotoxic T cells in spleen", "setting": "[7]", "result": 6, "unit": "fold"}, {"measurement": "toxicity, 14-day repeated dose", "setting": "[8]", "result": "no significant toxicity at any dose level"}, {"measurement": "remaining activity at 1 µM", "setting": "[9]", "result": 9.39, "unit": "%"}, {"measurement": "remaining activity at 1 µM", "setting": "[10]", "result": 4.45, "unit": "%"}, {"measurement": "remaining activity at 1 µM", "setting": "[11]", "result": -0.03, "unit": "%"}, {"measurement": "remaining activity at 1 µM", "setting": "[12]", "result": 1.05, "unit": "%"}, {"measurement": "remaining activity at 1 µM", "setting": "[13]", "result": 1.79, "unit": "%"}, {"measurement": "remaining activity at 1 µM", "setting": "[14]", "result": 2.88, "unit": "%"}, {"measurement": "remaining activity at 1 µM", "setting": "[15]", "result": 3.35, "unit": "%"}, {"measurement": "remaining activity at 1 µM", "setting": "[16]", "result": 6.07, "unit": "%"}, {"measurement": "remaining activity at 1 µM", "setting": "[17]", "result": 2.26, "unit": "%"}, {"measurement": "CBC", "setting": "[18]", "result": "No significant"}, {"measurement": "body weight", "setting": "[18]", "result": "No effect on body"}, {"measurement": "kidney serum biomarker CRE", "setting": "[18]", "result": "Mild effect on CRE; also recorded: mild decline in kidney serum biomarker CRE at 30 and 100 mpk"}, {"measurement": "organ weight", "setting": "[18]", "result": "No significant"}, {"measurement": "MER phosphorylation induced by MAB8912", "setting": "[19]", "result": "effectively blocked MER phosphorylation"}, {"measurement": "Gas6-mediated AXL phosphorylation", "setting": "[20]", "result": "effectively blocked"}]}
